The target of one assay is C-Raf (Homo sapiens (Human), UniProt P04049). Description: Raf kinase assay (C-Raf), [33P] incorporation into MEK1(K97R). The class given is biochemical. Summed up: (§1)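 Recombinant C-Raf (2 ng) or B-Raf or B-Raf V600E (5 ng each) phosphorylated 500 ng MEK1(K97R) with 8 μM ATP plus [33P]ATP, pH 7.5, 30 min at 30 °C. Filter-captured 33P counted. IC50 from 3-fold compound dilutions run in duplicate.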

The subject of another assay is COLO205. Description: Anti-proliferative activity, CellTiter-96 assay, COLO205. The format is cell-based. Particulars: Homo sapiens, COLO 205, COLO205 cells, 72 hours incubation. Here is the method: (§2) Antiproliferative Activity
(§3) The anti-proliferative activities of the compounds with formula (I) and formula (II) with respect to four human cancer cell lines (A549, A375, MDA-MB-231, and COLO205) were measured using the CellTiter™-96 assay kit (Promega) following the manufacturer's instructions. In brief, the cells were maintained in DMEM containing 10% FCS and incubated at 37° C. in 5% CO2 atmosphere. Cells were plated at a density of 2000 cells/well of a 96-well plate for 24 h, then treated with different concentrations of the compounds, and incubated for another 72 hours. At the end of the incubation, CellTiter™-96 Aqueous One Solution Reagent (Promega) was added and incubated for another 4.0 hours. Cell viability was determined by measuring absorbance at 490 nm using EMax® microplate reader (Molecular Devices). Data were processed and analyzed using GraphPad Prism version 4.

A further assay relates to A549. Description: Anti-proliferative activity, CellTiter-96 assay, A549. The class given is cell-based. Particulars: Homo sapiens, A549 cells, 72 hours incubation. Here is the method:
as §2, §3

Another assay has as its system A375. Put plainly: Anti-proliferative activity, CellTiter-96 assay, A375. The class given is cell-based. Particulars: Homo sapiens, A-375, A375 cells, 72 hours incubation. As for the experimental part: as §2, §3
In a further assay the test system is MDA-MB-231. Put plainly: Anti-proliferative activity, CellTiter-96 assay, MDA-MB-231. The class given is cell-based. Particulars: Homo sapiens, MDA-MB-231 cells, 72 hours incubation. Here is the method:
as §2, §3

In the next assay the target is B-Raf (Homo sapiens (Human), UniProt P15056). Put plainly: Raf kinase assay (B-Raf), [33P] incorporation into MEK1(K97R). The format is biochemical. Particulars: for inhibition at 1 µM: 1.0 μM compound, read-out: B-Raf inhibition at 1.0 μM. Summed up: as §1
Chain of B-Raf (P15056 whole entry): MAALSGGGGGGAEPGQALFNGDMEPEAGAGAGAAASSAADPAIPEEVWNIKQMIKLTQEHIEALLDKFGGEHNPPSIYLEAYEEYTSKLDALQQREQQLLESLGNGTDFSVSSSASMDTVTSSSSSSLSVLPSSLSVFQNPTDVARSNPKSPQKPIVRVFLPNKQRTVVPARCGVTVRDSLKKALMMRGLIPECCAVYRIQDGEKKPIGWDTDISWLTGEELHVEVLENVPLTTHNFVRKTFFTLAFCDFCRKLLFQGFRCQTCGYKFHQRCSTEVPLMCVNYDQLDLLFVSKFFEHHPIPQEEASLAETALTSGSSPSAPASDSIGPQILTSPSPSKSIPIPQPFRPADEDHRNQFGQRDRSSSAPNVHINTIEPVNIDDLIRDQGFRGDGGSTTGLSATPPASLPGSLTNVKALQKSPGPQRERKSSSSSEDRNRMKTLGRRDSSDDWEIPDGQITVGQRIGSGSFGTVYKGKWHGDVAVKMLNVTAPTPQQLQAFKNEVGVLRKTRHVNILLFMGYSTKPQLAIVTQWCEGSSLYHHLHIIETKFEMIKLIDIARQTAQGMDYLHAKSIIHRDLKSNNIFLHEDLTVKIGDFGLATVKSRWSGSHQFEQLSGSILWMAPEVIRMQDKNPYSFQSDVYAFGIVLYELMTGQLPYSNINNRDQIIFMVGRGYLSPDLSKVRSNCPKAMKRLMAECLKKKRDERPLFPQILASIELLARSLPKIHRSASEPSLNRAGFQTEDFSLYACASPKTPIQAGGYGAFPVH
A further assay deals with B-Raf (V600E) (Homo sapiens (Human), UniProt P15056, V600E). Put plainly: Raf kinase assay (B-Raf (V600E)), [33P] incorporation into MEK1(K97R). The class given is biochemical. Summed up: as §1
Chain of B-Raf (V600E) (P15056 whole entry V600E): as the sequence (P15056 whole entry) above, with V600E counted along it

Usually IC50 stands for the concentration that inhibits the measured activity by half. As a reminder, the inhibition is the share of the control response that was lost under treatment.

Chain of C-Raf (P04049 whole entry): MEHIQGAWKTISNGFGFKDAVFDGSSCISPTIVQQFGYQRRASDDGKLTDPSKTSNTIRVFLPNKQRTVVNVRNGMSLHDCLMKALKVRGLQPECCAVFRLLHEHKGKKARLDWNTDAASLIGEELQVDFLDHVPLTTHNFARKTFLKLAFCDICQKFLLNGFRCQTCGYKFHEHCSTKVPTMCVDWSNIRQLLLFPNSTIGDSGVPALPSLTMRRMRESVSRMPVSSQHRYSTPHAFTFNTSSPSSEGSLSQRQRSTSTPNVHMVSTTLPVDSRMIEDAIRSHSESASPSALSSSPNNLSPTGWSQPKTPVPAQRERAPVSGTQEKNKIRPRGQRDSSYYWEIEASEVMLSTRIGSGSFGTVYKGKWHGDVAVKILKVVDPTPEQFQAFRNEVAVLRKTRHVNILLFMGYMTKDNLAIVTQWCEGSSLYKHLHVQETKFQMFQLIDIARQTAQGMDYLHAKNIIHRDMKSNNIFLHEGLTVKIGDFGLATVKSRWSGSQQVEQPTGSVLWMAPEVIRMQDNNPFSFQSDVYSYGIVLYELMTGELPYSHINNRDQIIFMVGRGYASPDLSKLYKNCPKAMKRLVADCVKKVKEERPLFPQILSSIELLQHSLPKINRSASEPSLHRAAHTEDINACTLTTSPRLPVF

As for `COc1cc(-c2ccc3ncnc(Nc4cc(O)c(Cl)cc4Cl)c3c2)ccc1O` [Compound 61, 2,4-dichloro-5-(6-(4-hydroxy-3-methoxyphenyl)quinazolin-4-ylamino)phenol], the half-maximal inhibitory concentration (IC50) at C-Raf turned out to be 284 nM; with COLO205, 7.4 ± 1.9 µM; in the assay on A549, 1.6 ± 0.4 µM; in the assay on A375 it was 1.9 ± 0.5 µM; in the assay with MDA-MB-231, 2.9 ± 0.4 µM; at B-Raf, 40.1 nM. Also, the midpoint of inhibition on B-Raf (V600E), the IC50, lay at 59.9 nM. Further, at B-Raf, the inhibition at 1 µM worked out at 92.6%.
Take `COc1cc(-c2ccc3nccc(Nc4cc(O)ccc4F)c3c2)ccc1O` [Compound 101, 4-(4-(2-fluoro-5-hydroxyphenylamino)quinolin-6-yl)-2-methoxyphenol]: the IC50 turned out to be 96.1 nM at C-Raf; 21.1 ± 3.8 µM with COLO205; 6.7 ± 0.1 µM in the assay on A549; 2.3 ± 0.3 µM in the assay on A375; 21.1 ± 3.8 µM in the assay on MDA-MB-231; 18.1 nM against B-Raf. This compound yielded an IC50 against B-Raf (V600E) of 20.9 nM. Moreover, the inhibition at 1 µM on B-Raf worked out at 97.1%.
For the compound `Oc1cccc(Nc2ncnc3ccc(-c4ccccc4)cc23)c1` [Compound 133, 3-(6-phenylquinazolin-4-ylamino)phenol], the IC50 on C-Raf is 6640 nM; in the assay with COLO205 it was 11.5 ± 0.8 µM; in the assay with A549 it was 9.3 ± 1.3 µM; with A375, 6 ± 1 µM; in the assay with MDA-MB-231, 33.8 ± 6.9 µM; at B-Raf, 168 nM. Moreover, the midpoint of inhibition on B-Raf (V600E), the IC50, lay at 254 nM. For the same compound, at B-Raf, the inhibition at 1 µM stood at 85.8%.
As to `COc1cc(-c2ccc3ncnc(Nc4ccc(Cl)c(O)c4)c3c2)ccc1O` [Compound 157, 4-(4-(4-chloro-3-hydroxyphenylamino)quinazolin-6-yl)-2-methoxyphenol], the 50% inhibitory concentration (IC50) on C-Raf stood at 161 nM; in the assay on COLO205, 7.8 µM; with A549, 2.5 ± 0.8 µM; in the assay on A375 it was 2.9 ± 0.6 µM; with MDA-MB-231, 4.7 ± 0.3 µM; against B-Raf, 26.8 nM. The compound also yielded a concentration for half-maximal inhibition (IC50) against B-Raf (V600E) of 37.5 nM. Also, the inhibition at 1 µM on B-Raf was found to be 92%.
For the compound `COc1cc(-c2ccc3ncnc(Nc4cc(O)c(F)cc4F)c3c2)ccc1O` [Compound 158, 2,4-difluoro-5-(6-(4-hydroxy-3-methoxyphenyl)quinazolin-4-ylamino)phenol], the IC50 against C-Raf is 36.3 nM; in the assay on COLO205 it was 5.1 ± 1 µM; in the assay with A549, 0.9 ± 0.4 µM; in the assay with A375 it was 0.4 ± 0.1 µM; with MDA-MB-231, 1.2 ± 0.1 µM; against B-Raf, 3.8 nM. This compound displayed an IC50 against B-Raf (V600E) of 7.1 nM. Also, the inhibition at 1 µM on B-Raf turned out to be 96.4%.
As to `c1cc(Nc2ncnc3ccc(-c4ccc5c(c4)OCO5)cc23)c2cn[nH]c2c1` [Compound 96, 6-(benzo[d][1,3]dioxol-5-yl)-N-(1H-indazol-4-yl)quinazolin-4-amine], the IC50 against C-Raf was found to be 568 nM; in the assay with COLO205, 13 ± 2.4 µM; in the assay on A549, 14.2 ± 2.4 µM; with A375, 7.7 ± 0.4 µM; in the assay with MDA-MB-231, 12.6 ± 1.8 µM; at B-Raf it was 141 nM. At B-Raf (V600E), this compound showed an IC50 of 161 nM. On B-Raf, the inhibition at 1 µM came out at 86.1%.
On to `Oc1c(F)ccc(Nc2ncnc3ccc(-c4ccc5[nH]ncc5c4)cc23)c1F` [Compound 163, 3-(6-(1H-indazol-5-yl)quinazolin-4-ylamino)-2,6-difluorophenol], for which the half-maximal inhibitory concentration (IC50) against C-Raf worked out at 256 nM; in the assay with COLO205, 15.7 ± 2 µM; with A549, 26 ± 3.2 µM; in the assay on A375 it was 4.1 ± 0.7 µM; with MDA-MB-231, 17.8 ± 0.2 µM; on B-Raf, 2.4 nM. For the same compound, the midpoint of inhibition against B-Raf (V600E), the IC50, lay at 4.5 nM. Moreover, the inhibition at 1 µM at B-Raf came out at 94.2%.
Consider `Oc1ccc(-c2ccc3ncnc(Nc4cccc(O)c4)c3c2)cc1` [Compound 62, 3-(6-(4-hydroxyphenyl)quinazolin-4-ylamino)phenol], for which the IC50 at C-Raf worked out at 335 nM; with COLO205 it was 11.7 ± 2.5 µM; with A549, 3.7 ± 1.6 µM; with A375, 2.6 ± 0.1 µM; in the assay with MDA-MB-231, 7.2 ± 1.4 µM; at B-Raf, 32.5 nM. This compound also registered an IC50 on B-Raf (V600E) of 60.1 nM. Besides, the inhibition at 1 µM on B-Raf was 93.8%.
Turning to `Oc1ccc(-c2ccc3nccc(Nc4cccc5[nH]ncc45)c3c2)cc1` [Compound 124, 4-(4-(1H-indazol-4-ylamino)quinolin-6-yl)phenol], the IC50 is 409 nM against C-Raf; 9.6 ± 0.6 µM in the assay on COLO205; 6.1 ± 0.6 µM with A549; 7.3 ± 0.6 µM in the assay on A375; 8.5 ± 1.4 µM in the assay on MDA-MB-231; 188 nM on B-Raf. This compound returned a half-inhibitory concentration (IC50) at B-Raf (V600E) of 185 nM. At B-Raf, the inhibition at 1 µM was 82.4%.
Turning to `COc1cc(-c2ccc3ncnc(Nc4ccc(F)cc4)c3c2)ccc1O` [Compound 15, 4-(4-(4-fluorophenylamino)quinazolin-6-yl)-2-methoxyphenol], the IC50 against C-Raf was 1450 nM; in the assay with COLO205 it was 11.8 ± 4.6 µM; in the assay with A549 it was 2.5 ± 0.6 µM; with A375, 2.7 ± 0.2 µM; in the assay with MDA-MB-231, 4.1 ± 0.3 µM; at B-Raf, 1150 nM. At B-Raf (V600E), this compound displayed an IC50 of 1020 nM. In addition, the inhibition at 1 µM on B-Raf turned out to be 44.4%.
Turning to `COc1cc(-c2ccc3nccc(Nc4cccc5[nH]ncc45)c3c2)ccc1O` [Compound 103, 4-(4-(1H-indazol-4-ylamino)quinolin-6-yl)-2-methoxyphenol], the IC50 came to 354 nM at C-Raf; 8.9 µM in the assay on COLO205; 3.2 µM in the assay with A549; 6.6 µM in the assay with A375; 4 ± 0.2 µM in the assay with MDA-MB-231; 164 nM at B-Raf. Besides, the IC50 against B-Raf (V600E) was determined as 211 nM. The inhibition at 1 µM on B-Raf was determined as 85.2%.
In the case of `COc1cc(-c2ccc3ncnc(Nc4ccc(F)c(Cl)c4)c3c2)ccc1O` [Compound 14, 4-(4-(3-chloro-4-fluorophenylamino)quinazolin-6-yl)-2-methoxyphenol], the IC50 on C-Raf is 2160 nM; in the assay on COLO205, 31.6 ± 2.5 µM; with A549, above 50 µM; in the assay with A375, above 50 µM; with MDA-MB-231, above 50 µM; on B-Raf, 1010 nM. This compound also came in with a half-inhibitory concentration (IC50) on B-Raf (V600E) of 1090 nM. Besides, the inhibition at 1 µM at B-Raf came to 52.7%.
As for `COc1cc(-c2ccc3ncnc(Nc4cc(O)c(Cl)cc4F)c3c2)ccc1O` [Compound 159, 2-chloro-4-fluoro-5-(6-(4-hydroxy-3-methoxyphenyl)quinazolin-4-ylamino)phenol], the IC50 against C-Raf was 69.2 nM; in the assay on COLO205, 7.9 ± 1.9 µM; in the assay on A549 it was 2.9 ± 0.4 µM; in the assay on A375 it was 2.3 ± 0.5 µM; in the assay with MDA-MB-231 it was 4.3 ± 0.6 µM; on B-Raf it was 11.1 nM. Further, on B-Raf (V600E), the IC50 was 19.7 nM. Besides, the inhibition at 1 µM on B-Raf amounted to 97.4%.
In the case of `COc1cc2ncnc(Nc3cccc(O)c3)c2cc1-c1ccc(N)cc1` [Compound 68, 3-(6-(4-aminophenyl)-7-methoxyquinazolin-4-ylamino)phenol], the IC50 on C-Raf was 860 nM; in the assay with COLO205, 15.7 ± 4.1 µM; with A549, 7 ± 2.4 µM; with A375 it was 4.9 ± 1.7 µM; in the assay on MDA-MB-231, 11.5 ± 3.8 µM; at B-Raf, 55.8 nM. In addition, inhibition against B-Raf (V600E) was half-maximal at 76.6 nM (IC50). The inhibition at 1 µM at B-Raf worked out at 83.7%.
On to `COc1cc(-c2ccc3ncnc(Nc4ccccc4)c3c2)ccc1O` [Compound 1, 2-methoxy-4-(4-(phenylamino)quinazolin-6-yl)phenol], for which the half-maximal inhibitory concentration (IC50) on C-Raf was determined as 2150 nM; in the assay with COLO205 it was 8.5 ± 2.3 µM; with A549, 1.3 ± 0.3 µM; with A375 it was 2.3 ± 0.1 µM; in the assay on MDA-MB-231 it was 1.8 ± 0.2 µM; against B-Raf it was 900 nM. For the same compound, on B-Raf (V600E), the IC50 was 760 nM.

These data come from patent publication US8785459B2, “Quinazoline compounds as kinase inhibitors” (Development Center for Biotechnology, priority 2011, dated 2014).
